Experiments:
non-transformed seeds = experiment: Germination of non-transformed seeds imbibed in water with biotin; conditions: biotin in water used for imbibing
From the text: Since our T0 plants were crossed with non-transgenic maize in the greenhouse, it is expected that half of the seeds in our initial transformed plants (T1 seed) should not carry the avidin gene.

[1] = system: seeds from transformation events containing the avidin gene; experiment: Germination of T1 seeds containing the avidin gene, imbibed with and without biotin; type: in vivo, maize
[2] = system: corn plants expressing avidin with a constitutive promoter targeted to the cell wall; experiment: Reversal of avidin-induced male sterility by application of biotin to corn plants; type: in vivo; conditions: biotin applied to plants; unpublished results
From the text: Biotin is a B vitamin and provides a safe chemical for seed treatment. In addition, biotin is inexpensive and readily available. […] When avidin was expressed in corn plants with a constitutive promoter targeted to the cell wall, male sterility occurred (14).

## O=C(O)CCCC[C@@H]1SC[C@@H]2NC(=O)N[C@@H]21 [biotin]
non-transformed seeds
  biotin concentration tolerated with no detrimental signs of any effect on germination: up to 10 μg/ml
[1]; 20 seeds from a single ear of transformed corn imbibed with biotin, after one week, best result
  number of seeds that failed to germinate: one
[1]; several experiments testing 240 seeds, compared with water
  change in number of non germinating seeds when biotin applied during imbibing: cut in half
[2]
  reversal of male sterility caused by avidin: able to reverse the effect of avidin and render the plants fertile
